Test results as given in patent US5348946A, “Heteroanthracycline antitumor analogs” (Biochem Immunosystems, Inc., priority 1991, dated 1994).

Tests used:
[1] = system: DMS 114; experiment: in vitro cytotoxicity evaluation, Small Cell Lung Cancer; assay type: cell-based; details: Homo sapiens, 48 h, DMS 114, two days, sulforhodamine B
Protocol: BCH-255 (compound 39) was subjected to an in vitro cytotoxicity evaluation against 59 tumor cell lines to assess its potential as an anticancer drug. These assays were carried out at the Developmental Therapeutics Program, Division of Cancer Treatment, National Cancer Institute (Bethesda, Md., USA). The method consists of incubating varying concentrations of the drug with an inoculum of cells for two days. At the end of the assay, the number of viable cells is estimated with a dye, sulforhodamine B. The protocol is described in M. R. Boyd, "Status of the NCI Preclinical Antitumor Drug Discovery Screen", Principles and Practices of Oncology, 3, pp. 1-12, 1989.
There are three parameters calculated: GI50, the log molar concentration of drug required to inhibit cell growth by 50%; TGI, the log molar concentration of drug required to completely block cell growth; LC50, the log molar concentration of drug required to reduce the original cell number by 50%. It should be noted that the first two parameters (GI50 and TGI) relate to antiproliferation effects while the third one (LC50) indicates true cytotoxicity.

[2] = system: 59 tumor cell lines; experiment: in vitro cytotoxicity evaluation, whole panel; assay type: cell-based, human
Protocol: (§1) These assays were carried out at the Developmental Therapeutics Program, Division of Cancer Treatment, National Cancer Institute (Bethesda, Md., USA). The method consists of incubating varying concentrations of the drug with an inoculum of cells for two days.
(§2) It should be noted that the first two parameters (GI50 and TGI) relate to antiproliferation effects while the third one (LC50) indicates true cytotoxicity.

[3] = system: ACHN; experiment: in vitro cytotoxicity evaluation, Renal Cancer; assay type: cell-based; details: Homo sapiens, 48 h, two days, sulforhodamine B
Protocol: as §1, §2

[4] = system: TK-10; experiment: in vitro cytotoxicity evaluation, Renal Cancer; assay type: cell-based; details: Homo sapiens, 48 h, TK-10, two days, sulforhodamine B
Protocol: as §1, §2

[5] = system: 786-O; experiment: in vitro cytotoxicity evaluation, Renal Cancer; assay type: cell-based; details: Homo sapiens, 786-0, 48 h, two days, sulforhodamine B
Protocol: as §1, §2

[6] = system: UO-31; experiment: in vitro cytotoxicity evaluation, Renal Cancer; assay type: cell-based; details: Homo sapiens, 48 h, UO-31, two days, sulforhodamine B
Protocol: as §1, §2

[7] = system: SN12C; experiment: in vitro cytotoxicity evaluation, Renal Cancer; assay type: cell-based; details: Homo sapiens, 48 h, two days, sulforhodamine B
Protocol: as §1, §2

[8] = system: RXF-393; experiment: in vitro cytotoxicity evaluation, Renal Cancer; assay type: cell-based; details: Homo sapiens, 48 h, RXF-393, two days, sulforhodamine B
Protocol: as §1, §2

[9] = system: RXF-631; experiment: in vitro cytotoxicity evaluation, Renal Cancer; assay type: cell-based; details: Homo sapiens, 48 h, RXF-631, two days, sulforhodamine B
Protocol: as §1, §2

[10] = system: CAKI-1; experiment: in vitro cytotoxicity evaluation, Renal Cancer; assay type: cell-based; details: Homo sapiens, 48 h, CAKI-1, two days, sulforhodamine B
Protocol: as §1, §2

[11] = system: CCRF-CEM; experiment: in vitro cytotoxicity evaluation, Leukemia; assay type: cell-based; details: Homo sapiens, 48 h, two days, sulforhodamine B
Protocol: as §1, §2

[12] = system: MOLT-4; experiment: in vitro cytotoxicity evaluation, Leukemia; assay type: cell-based; details: Homo sapiens, 48 h, MOLT-4, two days, sulforhodamine B
Protocol: as §1, §2

[13] = system: RPMI-8226; experiment: in vitro cytotoxicity evaluation, Leukemia; assay type: cell-based; details: Homo sapiens, 48 h, RPMI-8226, two days, sulforhodamine B
Protocol: as §1, §2

[14] = system: K-562; experiment: in vitro cytotoxicity evaluation, Leukemia; assay type: cell-based; details: Homo sapiens, K562, 48 h, K-562, two days, sulforhodamine B
Protocol: as §1, §2

[15] = system: DMS 273; experiment: in vitro cytotoxicity evaluation, Small Cell Lung Cancer; assay type: cell-based; details: Homo sapiens, 48 h, DMS 273, two days, sulforhodamine B
Protocol: as §1, §2

[16] = read-out: LOG10 G150 (GI50) (converted)
[17] = read-out: Log10 TGI (converted)
[18] = read-out: Log10 LC50 (converted)

SMILES: COc1c2c(c(OC)c3c(=O)c4ccccc4sc13)CS(=O)(=O)[C@@H]2O[C@H]1C[C@H](N)[C@H](O)[C@H](C)O1 [BCH-255, (1S ) 1-daunosamine-4-11-dimethoxy-5-oxo-5-H-1,3-dihydrothioxantheno [2,3-c] thiophene-2,2-dioxide]
- GI50 [1, 16]: 17.8 µM
- IC (total growth inhibition (TGI)) [1, 17]: 37.2 µM
- DELTA of Log10 TGI ([2]; DELTA over the panel): 0.13
- CC50 ([2]; Homo sapiens, 48 h, MG MID over the panel, read-out: MG MID of Log10 LC50 (converted)): 75.9 µM
- IC (TGI) ([2]; Homo sapiens, 48 h, MG MID over the panel, read-out: MG MID of Log10 TGI (converted)): 40.7 µM
- GI50 ([2]; Homo sapiens, MG MID over the panel, read-out: MG MID of LOG10 G150 (GI50) (converted)): 20 µM
- RANGE of Log10 TGI ([2]; RANGE over the panel): 0.52
- cytotoxicity ([2]; solid tumors and leukemia cell lines): all the cell lines of solid tumors and leukemia showed cytotoxcity to the drug
- spectrum of antitumor activity ([2]; tumor cell line panel): wide spectrum of antitumor activity
- GI50 [3, 16]: 17.4 µM
- CC50 [3, 18]: 61.7 µM
- IC (total growth inhibition (TGI)) [3, 17]: 32.4 µM
- GI50 [4, 16]: 25.7 µM
- CC50 [4, 18]: 77.6 µM
- IC (total growth inhibition (TGI)) [4, 17]: 44.7 µM
- GI50 [5, 16]: 16.2 µM
- CC50 [5, 18]: 58.9 µM
- IC (total growth inhibition (TGI)) [5, 17]: 30.9 µM
- GI50 [6, 16]: 19.5 µM
- CC50 [6, 18]: 91.2 µM
- IC (total growth inhibition (TGI)) [6, 17]: 42.7 µM
- GI50 [7, 16]: 18.2 µM
- CC50 [7, 18]: 72.4 µM
- IC (total growth inhibition (TGI)) [7, 17]: 36.3 µM
- GI50 [8, 16]: 17 µM
- CC50 [8, 18]: 72.4 µM
- IC (total growth inhibition (TGI)) [8, 17]: 35.5 µM
- GI50 [9, 16]: 20 µM
- CC50 [9, 18]: > 100 µM
- IC (total growth inhibition (TGI)) [9, 17]: 46.8 µM
- GI50 [10, 16]: 19.5 µM
- CC50 [10, 18]: 74.1 µM
- IC (total growth inhibition (TGI)) [10, 17]: 38 µM
- GI50 [11, 16]: 17.8 µM
- CC50 [11, 18]: 97.7 µM
- IC (total growth inhibition (TGI)) [11, 17]: 41.7 µM
- GI50 [12, 16]: 19.1 µM
- CC50 [12, 18]: 87.1 µM
- IC (total growth inhibition (TGI)) [12, 17]: 40.7 µM
- GI50 [13, 16]: 16.2 µM
- CC50 [13, 18]: > 100 µM
- IC (total growth inhibition (TGI)) [13, 17]: 40.7 µM
- GI50 [14, 16]: 16.2 µM
- CC50 [14, 18]: 83.2 µM
- IC (total growth inhibition (TGI)) [14, 17]: 36.3 µM
- GI50 [15, 16]: 18.2 µM
- CC50 [15, 18]: 70.8 µM
- IC (total growth inhibition (TGI)) [15, 17]: 35.5 µM
